Test results reported in patent EP0260606A2, “Medicament for curing neurotic disturbance or disorder comprising sialocylglycerolipid” (MECT CORPORATION, priority 1986, dated 1988).
Values joined by “and” are separate entries in the source; they are usually repeats but may differ in a detail not shown here. Equal values may be shown once. Marks after values point to notes of the source that are not given here.

How the values were obtained:
[1] = system: rat having its nigral depaminergic neuron destroyed; experiment: Methamphethamine-induced rotational movement after 6-hydroxydopamine lesion and fetal dopaminergic cell transplantation; assay type: in vivo; conditions: for Average of Rotational Movement of Rats (Average + S.D.): group average; for Average of Rotational Movement of Rats (Average + S.D.) / Number of Rotational Movement of Rats: 30 mg/kg; for Number of Rotational Movement of Rats: individual rat, 30 mg/kg every day for two weeks from transplantation; for remedy of motor disturbance: result in words
Source text: The nigral dopaminergic neuron of the brain of a rat was chemically destroyed by injecting a very small quantity of 6-hydroxydopamine to cause motor disturbance.
After the lapse of two weeks, a fetal brain dopaminergic cell was transplanted on the Nucleus caudatus of the rat brain to try to remedy the motor disturbance.
The nigral depaminergic neuron at the left side of the brain of a female Wister family rat aged 4-weeks (Body Weight: l00 g) was destroyed by injecting a very small quantity of 6-hydroxydopamine.
After two weeks from the destruction by the administration of the drug, portions of the […] containing dopamin cells (i.e. substantia nigra and the Tegmentum at the abdomen side) were extracted from the fetal rat brain of a fetal rat of l4 to l7 days age, cut finely, and treated with trypsin. Then, the extracted tissues were incubated at 37°C for 30 minutes, and the tissues were subjected to pipetting to form a suspension. 5 µl each of the suspensions were transplanted on two sites of the Nucleus caudatus of the destructed side, the total of l0 µl (containing about l0⁵ cells) being transplanted.
The rotational movements caused by administration of methamphethamine were examined at the time point before 2 weeks of the transplantation (- 2W), at the time point before one week of the transplantation (- lW) and at the time point after two weeks of the transplantation (2W). The number of rotational movements within one minute were counted at l0 minute intervals after six administrations of methamphethamine, and the total number of rotational movements counted for the six times was averaged to find the mean rotational movement. As controls, the numbers of rotational movements of the rats administered, respectively, with a ganglioside mixture and GM₁ ganglioside were counted.

[2] = system: rats having their sciatic nerves crushed; experiment: Curing effect on rats with crushed sciatic nerve (distance between toes, weight of musculi soleus); assay type: in vivo, rat; conditions: for Recovery Rate (%) in Distance between the Fingers / Recovery Rate (%) in Weight of the Muscle: ip once per day, average ± S.D.; for Recovery Rate (%) in Weight of the Muscle: 28th Day
Method: The curing effect of the compound (I) of the invention on the rats having their sciatic nerves crushed, which were used as models caused by peripheral nervous disturbances, was assessed by examining (l) the change in action of the crushed hind leg and (2) the change in weight of the muscle as indicators for the modification of peripheral nerve and for the recovery course of the disturbance.
In the experiment, seven male Wister family rats (6 weeks age) were used per a group. The sciatic nerve of each rat was crushed in accordance with the method of Yamazu et al. (see Kiyomi Yamazu, Takenori Kaneko, Akifumi Kitahara and Isao Ohkawa, Journal of Japanese Pharmacological Society, 72, 259 - -268 (l976)) and in accordance with the method of Hasegawa et al. (see Kazuo Hasegawa, Naoji Mikuni and Yutaka Sakai, Journal of Japanese Pharmacological Society, 74, 72l - 734 (l978)). Specifically, under anesthesia with Pentobarbital (40 mg/kg, i.p.), the left sciatic nerve was exposed at the femur and the site 5 mm centrally from the branch portion between the N. tibialis and the N. suralis was crushed using a modified artery klemme having a width of 2 mm and gap of 0.l mm. Rats subjected to the operation were randomly dispensed to form the groups subjected to test.
The compound (I) of the invention was intraperitoneally administered one time per day from the day on which the nerve was crushed to the 22nd day. The control groups included a group administered with Mecobalamin (produced by Gedeon Richter Ltd.), a group administered with a 20% aqueous solution of propylene glycol (hereinafter referred to as 20% PG) which was used to dissolve the compound (I) of the invention, and a group administered with a 0.9% aqueous saline solution. The predetermined measurements were conducted with the lapse of time after the crushing operation (at the first, fourth, seventh, tenth, l4th, l5th, l7th, l9th 2lst and 28th days).
The distance between the toes was measured, since this is a good indicator showing the modification and recovery of the function of the nerve and the change thereof could conveniently measured with the lapse of time.
The measurement was conducted in accordance with the method of Hasegawa, (Hasegawa, K., Experientia, 34, 750 - 75l (l978)) by measuring the distance from the first toe to the fifth toe of the hind leg.
The ratio of the distance at the crushed side to the distance at the normal side was calculated as a percentage (%), the average values and the standard deviations (S.D.) being shown in Table 5.
It is known that removal of or disturbance in a certain nerve causes atrophy of the muscle controlled by the nerve, and the atrophy is gradually recovered by the recontrol by the nerve. For this reason, the quantitative change in weight of the muscle was selected as an indicator. At 28th day after the operation, the muscli soleus of both hind legs were extracted under anesthesia with Pentobarbital, and the weights of the muscles were weighed. The weight ratio of the muscli soleus at the crushed side to the muscli soleus at the normal side was calculated and represented by percentage (%).

[3] = - 1W (before transplantation and dosing)
[4] = - 2W (before transplantation and dosing)

In the case of `CCCCCCCCCCCCCCOCC(COC1(C(=O)O)CC(O)C(NC(C)=O)C(C(O)C(O)CO)O1)OCCCCCCCCCCCCCC` (stereo not drawn) [Compound (I)], the “Average of Rotational Movement of Rats (Average + S.D.)” value (“Average of Rotational Movement of Rats” for short) ([1]; 2W after transplantation) is reported as 2.8+4.0*, the “Average of Rotational Movement of Rats” value [1, 3] is reported as 12.3+3.8 and the “Average of Rotational Movement of Rats” value [1, 4] is reported as 8.2+3.2. For the same molecule, the “Number of Rotational Movement of Rats” value ([1]; 2W after transplantation) was 5.3 and 3.2 and 5.8, the “Number of Rotational Movement of Rats” value [1, 3] was 17.4 and 12.2 and 8.4 and 11.0 and the “Number of Rotational Movement of Rats” value [1, 4] was 12.2 and 5.8 and 5.4 and 9.5. For the same molecule, the “remedy of motor disturbance” value [1] was “effect of promoting the remedy of motor disturbance similar to the ganglioside mixtures”, the “remedy of motor disturbance” value ([1]; listed as compound (I)) was “had a function of remedying the nerves similar to gangliosides” and the “Recovery Rate (%) in Distance between the Fingers” value ([2]; 17th Day, 3 mg/kg, crushed side / normal side) was 71.5 ± 5.5 %. The “Recovery Rate (%) in Distance between the Fingers” value ([2]; 17th Day, 30 mg/kg) was 80.4 ± 9.6 %, the “Recovery Rate (%) in Distance between the Fingers” value ([2]; 19th Day, 3 mg/kg) was 82.1 ± 9.7% and the “Recovery Rate (%) in Distance between the Fingers” value ([2]; 19th Day, 30 mg/kg) was 90.3 ± 4.4 %. The “Recovery Rate (%) in Weight of the Muscle” value ([2]; 3 mg/kg, musculi soleus, crushed side / normal side) was 82.8 ± 6.7%, the “Recovery Rate (%) in Weight of the Muscle” value ([2]; 30 mg/kg) was 89.1 ± 5.7% and the “recovery of the distance between the toes and the weight of the musculi soleus” value ([2]; result in words) was “promoted the recovery to the normal values”.
